Results: patent US20230041743A1, “1,8-NAPHTHYRIDIN-2-ONE COMPOUNDS FOR THE TREATMENT OF AUTOIMMUNE DISEASE” (Hoffmann-La Roche Inc., priority 2019, published 2023)

What was measured:
human TLR7 = molecular target: T1, human TLR7 (Homo sapiens, UniProt Q9NYK1); assay: HEK293-Blue-hTLR-7 cells assay (SEAP reporter, R848 stimulation); type: cell-based; details: HEK293-Blue-hTLR7 cells, R848 ligand, 20 hrs incubation; read-out: HEK/hTLR7 IC50
T1 construct: host or cells: HEK293 (HEK-Blue hTLR7)
T1 sequence (Q9NYK1 27-1049): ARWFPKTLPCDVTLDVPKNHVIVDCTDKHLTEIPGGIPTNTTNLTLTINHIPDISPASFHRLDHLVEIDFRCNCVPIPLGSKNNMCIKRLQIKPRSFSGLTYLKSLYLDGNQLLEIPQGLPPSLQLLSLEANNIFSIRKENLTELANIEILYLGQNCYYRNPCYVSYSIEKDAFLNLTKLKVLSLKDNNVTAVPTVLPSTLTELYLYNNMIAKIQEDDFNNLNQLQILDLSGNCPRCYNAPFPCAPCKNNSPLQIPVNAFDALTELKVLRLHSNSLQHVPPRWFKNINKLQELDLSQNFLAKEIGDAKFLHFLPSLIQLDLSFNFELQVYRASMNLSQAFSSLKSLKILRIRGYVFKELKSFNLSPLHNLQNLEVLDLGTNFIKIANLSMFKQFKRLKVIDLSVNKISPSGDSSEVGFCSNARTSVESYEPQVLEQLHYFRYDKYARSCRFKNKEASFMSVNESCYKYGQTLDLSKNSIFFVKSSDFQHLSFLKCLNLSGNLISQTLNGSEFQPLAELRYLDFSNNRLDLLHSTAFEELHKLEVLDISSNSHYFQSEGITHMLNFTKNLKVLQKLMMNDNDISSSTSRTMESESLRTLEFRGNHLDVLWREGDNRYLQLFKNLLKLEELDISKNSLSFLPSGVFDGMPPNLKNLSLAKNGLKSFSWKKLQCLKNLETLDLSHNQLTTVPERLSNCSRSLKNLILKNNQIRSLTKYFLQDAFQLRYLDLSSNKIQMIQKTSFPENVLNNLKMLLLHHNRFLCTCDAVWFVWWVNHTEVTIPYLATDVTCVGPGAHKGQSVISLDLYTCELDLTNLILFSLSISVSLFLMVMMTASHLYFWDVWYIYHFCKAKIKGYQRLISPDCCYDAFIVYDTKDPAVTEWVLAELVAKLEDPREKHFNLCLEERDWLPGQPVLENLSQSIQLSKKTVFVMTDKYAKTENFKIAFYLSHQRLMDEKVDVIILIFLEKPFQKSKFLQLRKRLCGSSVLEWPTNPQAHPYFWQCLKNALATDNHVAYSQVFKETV
Source text: HEK293-Blue-hTLR-7 Cells Assay:
A stable HEK293-Blue-hTLR-7 cell line was purchased from InvivoGen (Cat. #: hkb-htlr7, San Diego, Calif., USA). These cells were originally designed for studying the stimulation of human TLR7 by monitoring the activation of NF-κB. A SEAP (secreted embryonic alkaline phosphatase) reporter gene was placed under the control of the IFN-β minimal promoter fused to five NF-κB and AP-1-binding sites. The SEAP was induced by activating NF-κB and AP-1 via stimulating HEK-Blue hTLR7 cells with TLR7 ligands. Therefore the reporter expression was declined by TLR7 antagonist under the stimulation of a ligand, such as R848 (Resiquimod), for incubation of 20 hrs. The cell culture supernatant SEAP reporter activity was determined using QUANTI-Blue™ kit (Cat. #: rep-qb1, Invivogen, San Diego, Ca, USA) at a wavelength of 640 nm, a detection medium that turns purple or blue in the presence of alkaline phosphatase.
HEK293-Blue-hTLR7 cells were incubated at a density of 250,000-450,000 cells/mL in a volume of 170 μL in a 96-well plate in Dulbecco's Modified Eagle's medium (DMEM) containing 4.5 g/L glucose, 50 U/mL penicillin, […], […], 2 mM L-glutamine, 10% (v/v) heat-inactivated fetal bovine serum with addition of 20 μL test compound in a serial dilution in the presence of final DMSO at 1% and 10 μL of 20 uM R848 in above DMEM, perform incubation under 37° C. in a CO2 incubator for 20 hrs. Then 20 μL of the supernatant from each well was incubated with 180 μL Quanti-blue substrate solution at 37° C. for 2 hrs and the absorbance was read at 620˜655 nm using a spectrophotometer. The signaling pathway that TLR7 activation leads to downstream NF-κB activation has been widely accepted, and therefore similar reporter assay was modified for evaluating TLR7 antagonist.

[1] = Human microsomal stability assay; type: in vitro ADME; details: human liver microsomes, 1 μM test compound, 0.5 mg/mL protein, 37° C.; low <7.0, medium 7.0-16.2, high 16.2-23.2
Protocol: Human Microsomal Stability Assay
Human liver microsomes (Cat. NO.: 452117, Corning, USA) were preincubated with test compound for 10 minutes at 37° C. in 100 mM potassium phosphate buffer, pH 7.4. The reactions were initiated by adding NADPH regenerating system. The final incubation mixtures contained 1 μM test compound, 0.5 mg/mL liver microsomal protein, 1 mM MgCl2, 1 mM NADP, 1 unit/mL isocitric dehydrogenase and 6 mM isocitric acid in 100 mM potassium phosphate buffer, pH 7.4. After incubation times of 0, 3, 6, 9, 15 and 30 minutes at 37° C., 300 μL of cold ACN (including internal standard) was added to 100 μL incubation mixture to terminate the reaction. Following precipitation and centrifugation, 100 uL supernatant will be taken out and added 300 uL water.
The amount of compound remaining in the samples was determined by LC-MS/MS. Controls of no NADPH regenerating system at zero and 30 minutes were also prepared and analyzed. The results were categorized as: low (<7.0 mL/min/kg), medium (7.0-16.2 mL/min/kg) and high (16.2-23.2 mL/min/kg).

Q: Which results are given for C[C@@H]1CN(c2cc(=O)n(C)c3ncccc23)C[C@@H]2c3ccc(N4CCC[C@@H](N)C4)cc3CN12 [Example 16, 4-[(4R,10bS)-8-[(3R)-3-amino-1-piperidyl]-4-methyl-3,4,6,10b-tetrahydro-1H-pyrazino[2,1-a]isoindol-2-yl]-1-methyl-1,8-naphthyridin-2-one]?
A: IC50 (human TLR7): 15.9 nM; CL (h) [1]: 8.5 mL/min/kg

Q: What does the source list for C[C@@H]1CN(c2cc(=O)n(C)c3ncccc23)C[C@@H]2c3ccc(OCCN(C)C)cc3CN12 [Example 23, 4-[(4R,10bS)-8-[2-(dimethylamino)ethoxy]-4-methyl-3,4,6,10b-tetrahydro-1H-pyrazino[2,1-a]isoindol-2-yl]-1-methyl-1,8-naphthyridin-2-one]?
A: IC50 (human TLR7): 31 nM; CL (h) [1]: 6.2 mL/min/kg

Q: With C[C@@H]1CN(c2ccc3c(c2)CN2[C@H](C)CN(c4cc(=O)n(C)c5ncccc45)C[C@H]32)CCN1 [Example 14, 4-[(4R,10bS)-4-methyl-8-[(3R)-3-methylpiperazin-1-yl]-3,4,6,10b-tetrahydro-1H-pyrazino[2,1-a]isoindol-2-yl]-1-methyl-1,8-naphthyridin-2-one] as the compound, how does the IC50 (human TLR7) read?
A: The IC50 was 6.4 nM.

Q: For COC[C@@H]1CNCCN1c1ccc2c(c1)CN1[C@H](C)CN(c3cc(=O)n(C)c4ncccc34)C[C@H]21 [Example 10, 4-[(4R,10bS)-8-[(2S)-2-(methoxymethyl)piperazin-1-yl]-4-methyl-3,4,6,10b-tetrahydro-1H-pyrazino[2,1-a]isoindol-2-yl]-1-methyl-1,8-naphthyridin-2-one], which IC50 (human TLR7) is on record?
A: Its IC50 is 9.1 nM.

Q: For C[C@@H]1CN(c2cc(=O)n(C)c3ncccc23)C[C@@H]2c3ccc(N4CC(C)(N)C4)cc3CN12 [Example 1, 4-[(4R,10bS)-8-(3-amino-3-methyl-azetidin-1-yl)-4-methyl-3,4,6,10b-tetrahydro-1H-pyrazino[2,1-a]isoindol-2-yl]-1-methyl-1,8-naphthyridin-2-one], which IC50 (human TLR7) is on record?
A: Its IC50 is 30.4 nM.

Q: For C[C@@H]1CN(c2cc(=O)n(C)c3ncccc23)C[C@@H]2c3ccc([C@H]4CC[C@@H](N5CCOCC5)CC4)cc3CN12 [Example 27B, 4-[(4R,10bS)-4-methyl-8-(cis-4-morpholinocyclohexyl)-3,4,6,10b-tetrahydro-1H-pyrazino[2,1-a]isoindol-2-yl]-1-methyl-1,8-naphthyridin-2-one], which IC50 (human TLR7) is on record?
A: Its IC50 is 10 nM.

Q: With C[C@@H]1CN(c2cc(=O)n(C)c3ncccc23)C[C@@H]2c3ccc(N4CCC(C)(N)CC4)cc3CN12 [Example 18, 4-[(4R,10bS)-8-(4-amino-4-methyl-1-piperidyl)-4-methyl-3,4,6,10b-tetrahydro-1H-pyrazino[2,1-a]isoindol-2-yl]-1-methyl-1,8-naphthyridin-2-one] as the compound, how does the IC50 (human TLR7) read?
A: Its IC50 is 9.8 nM.

Q: And the “CL (h)” value [1]?
A: The value was 6.2 mL/min/kg.

Q: Which IC50 (human TLR7) does the source give for C[C@@H]1CN(c2cc(=O)n(C)c3ncccc23)C[C@@H]2c3ccc(N4CC5(CNCCO5)C4)cc3CN12 [Example 3, 4-[(4R,10bS)-4-methyl-8-(5-oxa-2,8-diazaspiro[3.5]nonan-2-yl)-3,4,6,10b-tetrahydro-1H-pyrazino[2,1-a]isoindol-2-yl]-1-methyl-1,8-naphthyridin-2-one] here?
A: Its IC50 is 21.1 nM.

Q: For C[C@@H]1CN(c2cc(=O)n(C)c3ncccc23)C[C@@H]2c3ccc([C@H]4CC[C@H](N5CCOCC5)CC4)cc3CN12 [Example 27A, 4-[(4R,10bS)-4-methyl-8-(trans-4-morpholinocyclohexyl)-3,4,6,10b-tetrahydro-1H-pyrazino[2,1-a]isoindol-2-yl]-1-methyl-1,8-naphthyridin-2-one], which IC50 (human TLR7) is on record?
A: The IC50 was 7 nM.

Q: What about the “CL (h)” value [1] of the same compound?
A: The value was 7.3 mL/min/kg.

Q: With C[C@@H]1CN(c2cc(=O)n(C)c3ncccc23)C[C@@H]2c3ccc(N4C[C@@H]5C[C@H]4CN5)cc3CN12 [Example 19, 4-[(4R,10bS)-8-[(1S,4S)-2,5-diazabicyclo[2.2.1]heptan-2-yl]-4-methyl-3,4,6,10b-tetrahydro-1H-pyrazino[2,1-a]isoindol-2-yl]-1-methyl-1,8-naphthyridin-2-one] as the compound, how does the IC50 (human TLR7) read?
A: Its IC50 is 15.6 nM.

Q: What about the “CL (h)” value [1] of the same compound?
A: The value was 6.2 mL/min/kg.

Q: With CCn1c(=O)cc(N2C[C@@H](C)N3Cc4cc(N5C[C@@H](N)[C@H](OC)C5)ccc4[C@H]3C2)c2cccnc21 [Example 29, 4-[(4R,10bS)-8-[(3R,4R)-3-amino-4-methoxy-pyrrolidin-1-yl]-4-methyl-3,4,6,10b-tetrahydro-1H-pyrazino[2,1-a]isoindol-2-yl]-1-ethyl-1,8-naphthyridin-2-one] as the compound, how does the IC50 (human TLR7) read?
A: The IC50 was 85.2 nM.

Q: What about the “CL (h)” value [1] of the same compound?
A: Its value is 6.4 mL/min/kg.

Q: Which IC50 (human TLR7) does the source give for C[C@@H]1CN(c2cc(=O)n(C)c3ncccc23)C[C@@H]2c3ccc(N4C[C@H]5NCCO[C@@H]5C4)cc3CN12 [Example 6, 4-[(4R,10bS)-8-[(4aR,7aR)-3,4,4a,5,7,7a-hexahydro-2H-pyrrolo[3,4-b][1,4]oxazin-6-yl]-4-methyl-3,4,6,10b-tetrahydro-1H-pyrazino[2,1-a]isoindol-2-yl]-1-methyl-1,8-naphthyridin-2-one] here?
A: Its IC50 is 62 nM.

Q: With C[C@@H]1CN(c2cc(=O)n(C)c3ncccc23)C[C@@H]2c3ccc(N4CCOC[C@H](N)C4)cc3CN12 [Example 22, 4-[(4R,10bS)-8-[(6R)-6-amino-1,4-oxazepan-4-yl]-4-methyl-3,4,6,10b-tetrahydro-1H-pyrazino[2,1-a]isoindol-2-yl]-1-methyl-1,8-naphthyridin-2-one] as the compound, how does the IC50 (human TLR7) read?
A: The IC50 was 35.8 nM.

Q: Which IC50 (human TLR7) does the source give for CO[C@H]1CN(c2ccc3c(c2)CN2[C@H](C)CN(c4cc(=O)n(C)c5ncccc45)C[C@H]32)CC[C@@H]1N [Example 8, 4-[(4R,10bS)-8-[(3S,4S)-4-amino-3-methoxy-1-piperidyl]-4-methyl-3,4,6,10b-tetrahydro-1H-pyrazino[2,1-a]isoindol-2-yl]-1-methyl-1,8-naphthyridin-2-one] here?
A: The IC50 was 19.4 nM.

Q: With C[C@@H]1CNCCN1c1ccc2c(c1)CN1[C@H](C)CN(c3cc(=O)n(C)c4ncccc34)C[C@H]21 [Example 17, 4-[(4R,10bS)-4-methyl-8-[(2R)-2-methylpiperazin-1-yl]-3,4,6,10b-tetrahydro-1H-pyrazino[2,1-a]isoindol-2-yl]-1-methyl-1,8-naphthyridin-2-one] as the compound, how does the IC50 (human TLR7) read?
A: Its IC50 is 2.8 nM.

Q: For C[C@@H]1CN(c2cc(=O)n(C)c3ncccc23)C[C@@H]2c3ccc([C@@H]4C[C@H]5COC[C@@H](C4)N5)cc3CN12 [Example 28B, 4-[(4R,10bS)-4-methyl-8-(exo-3-oxa-9-azabicyclo[3.3.1]nonan-7-yl)-3,4,6,10b-tetrahydro-1H-pyrazino[2,1-a]isoindol-2-yl]-1-methyl-1,8-naphthyridin-2-one], which IC50 (human TLR7) is on record?
A: The IC50 was 8.6 nM.
